Data on seven compounds can be found in the pKa sets of Baltruschat and Czodrowski (2020).

The term pKa denotes the negative logarithm of the acid dissociation constant. Low values mean a group that gives up its proton readily, high ones a group that holds its proton tightly.

Consider `Cc1ccc(-c2ncc(Cl)cc2-c2ccc(S(C)(=O)=O)cc2)cn1`, for which the pKa was 4.63.
The compound `Cc1ccc(Nc2c(F)cccc2Cl)c(CC(=O)[O-])c1` gave a pKa of 4.2.
The figure for `Cc1nc2cccc(C(F)(F)F)c2c(=O)n1-c1ccc(OC2CC[NH+](C3CCC3)CC2)cc1` is 9; for `CC(=O)N1CCN(c2ccc(OCc3cc4cnc(C#N)nc4n3CCC3CCC(F)(F)CC3)cc2)CC1` it is 3.6.
The figure for `CNc1nc2ccccc2n(C)c1=O` is 4.25; for `CN(n1c(=O)[nH]c2cc(Cl)ccc2c1=O)S(C)(=O)=O` it is 8.4.
The compound `Cc1ccnc(N2CCC3(CCCN(Cc4c[nH]c5ccccc45)C3=O)CC2)n1` had a pKa of 4.2.
